Results as given in PMC11609934, “Exploration and characterization of the antimalarial activity of cyclopropyl carboxamides that target the mitochondrial protein, cytochrome b” (European Journal of Medicinal Chemistry, 2024).
pEC50: −log10 of the molar value.

What was measured:
[1] = tested on: P. falciparum 3D7 parasites; experiment: P. falciparum 3D7 asexual stage LDH assay (72 h); format: cell-based, Plasmodium falciparum; conditions: for pEC50: Plasmodium falciparum, 3D7, 72 h, LDH activity of P. falciparum 3D7 parasites over 72 h, means and SDs, three or more experiments, read-out: Pf 3D7 EC50 (SD)
Experimental: To establish the SAR, synthesized analogs were assessed against the asexual stage parasite (72 h) using LDH as a proxy for parasite growth inhibition. Cytotoxicity was monitored against the human HepG2 cell line using Cell TitreGlo as a metabolic marker for cell growth.
P. falciparum 3D7 Asexual Stage LDH Assay. This is a platform assay is routinely undertaken at the Walter and Eliza Hall Institute and details on the protocol has been previously published. Briefly, 10-point dilution series of the compounds were prepared in 384 well assay plates using an Echo555 (Labcyte). Appropriate volumes of 10 mM compound stocks were transferred into the assay plates such that the starting concentration was 1 μM, with a 1 in 3-fold dilution series. All wells were backfilled with DMSO to 40 nL such that this remained constant (0.1 % DMSO). The positive growth control was 0.1 % DMSO and the negative growth control was 100 nM chloroquine. The parasite inoculum (40 μL) was dispensed into plates containing compounds using a Multidrop Combi dispenser (Thermo Scientific). […] Following 72 h growth, plates were sealed with parafilm and frozen at −80 °C overnight. Plates were thawed at room temperature for at least 4 h prior to LDH activity being measured. […] Plates were shaken to ensure mixing and absorbance at 650 nm was measured in an EnVision (PerkinElmer) plate reader after 30 min of incubation at room temperature. […] The equation used is sigmoidal dose response (variable slope), Y = bottom + (top − bottom)/(1 + 10((logEC50 − X) × Hill Slope)).

[2] = Human HepG2 growth inhibition assay (Cell TitreGlo, 48 h); format: cell-based; conditions: human, HepG2 cells, HepG2 cell growth inhibition over 48 h
Experimental: To establish the SAR, synthesized analogs were assessed against the asexual stage parasite (72 h) using LDH as a proxy for parasite growth inhibition. Cytotoxicity was monitored against the human HepG2 cell line using Cell TitreGlo as a metabolic marker for cell growth. Cyt b inhibitors typically have high lipophilicity, and so calculated physicochemical properties were determined, while in vitro ADME was also collected on representative analogs to gauge their suitability for efficacy studies in a 4-day P. berghei model.
Human HepG2 Growth Inhibition Assay. This is a routine assay undertaken at the Walter and Eliza Hall Institute and the method has been previously published. HepG2 cells were cultured in Dulbeccos modified eagles medium (DMEM) supplemented with 10 % fetal calf serum (FCS), in a humidified incubator at 37 °C and 5 % CO2. Assay plates (Greiner #781098, 384 well, white, tissue culture treated) were prepared by transferring appropriate volumes of 10 mM compound stocks using an Echo555 (Labcyte) such that the starting concentration was 50 μM, with a 1:2-fold dilution series. All wells were backfilled with DMSO to […] such that this remained constant (0.5 % DMSO). The positive growth control was 0.5 % DMSO and the negative growth control was 10 μM Bortezomib. HepG2 cells were seeded with 1000 cells in 50 μL DMEM with 10 % FCS into each well of the assay plates using a Multidrop Combi dispenser (Thermo Scientific). Plates were incubated at 37 °C and 5 % CO2 for 48 h. Cytotoxicity was determined using Cell Titer Glo (Promega) and calculated as a percentage using DMSO as the positive growth control and 10 μM Bortezomib as a negative growth control. EC50 values were calculated by Dotmatics 5.3 and Spotfire 7.11.1 software using a nonlinear regression four-parameter fit analysis. The equation used is sigmoidal dose response (variable slope), Y = bottom + (top − bottom)/(1 + 10((logEC50 − X) × Hill Slope)).

Row | Structure (SMILES) | pEC50 [1] | fold loss in Pf 3D7 activity relative to W499 (2) ([1]; carboxamide variants versus cyclopropyl parent) | CC50 at 48 h [2] [µM] | fold decrease in Pf 3D7 activity relative to 17 ([1]; ratio of EC50 to compound 17) [fold]
1 | O=C(NCCO)c1ccc(CN(Cc2ccc(Cl)cc2Cl)C2CC2)cc1 [Compound 37, 4-((Cyclopropyl(2,4-dichlorobenzyl)amino)methyl)-N-(2-hydroxyethyl)benzamide] | 5.62 | approximately 25 fold | > 40 | 
2 | CCNC(=O)c1ccc(CN(Cc2ccc(Cl)cc2Cl)C2CC2)cc1 [Compound 31, 4-((Cyclopropyl(2,4-dichlorobenzyl)amino)methyl)-N-ethylbenzamide] | 6.51 |  | > 40 | 
3 | O=C(NC1CC1)c1ccc(CN(Cc2ccccc2C(F)(F)F)C2CC2)cc1 [Compound 49] | 6.66 |  | > 40 | 
4 | Cc1cccc(CN(Cc2ccc(C(=O)NC3CC3)cc2)C2CC2)c1 [Compound 50] | 6.77 |  | > 40 | 
5 | CN(Cc1ccccc1)Cc1ccc(C(=O)NC2CC2)cc1 [Compound 19, 4-((Benzyl(methyl)amino)methyl)-N-cyclopropylbenzamide] | 5.59 |  | > 40 | 20
6 | CNC(=O)c1ccc(CN(Cc2ccc(Cl)cc2Cl)C2CC2)cc1 [Compound 30] | 5.93 |  | > 40 | 
7 | COc1ccc(CN(Cc2ccc(C(=O)NC3CC3)cc2)C2CC2)cc1 [Compound 59] | 6.64 |  | > 40 | 
8 | O=C(NC1CC1)c1ccc(CN(Cc2cccc(CO)c2)C2CC2)cc1 [Compound 70, N-Cyclopropyl-4-((cyclopropyl(3-(hydroxymethyl)benzyl)amino)methyl)benzamide] | 5.96 |  | > 40 | 
9 | N#Cc1cccc(CN(Cc2ccc(C(=O)NC3CC3)cc2)C2CC2)c1 [Compound 61] | 6.89 |  | > 40 | 
10 | O=C(NC1CC1)c1ccc(CN(Cc2cccc(Cl)c2)C2CC2)cc1 [Compound 46, 4-(((3-Chlorobenzyl) (cyclopropyl)amino)methyl)-N-cyclopropylbenzamide] | 6.47 |  | > 40 | 
11 | O=C(NC1CC1)c1ccc(CN(Cc2ccccn2)C2CC2)cc1 [Compound 85] | 5.18 |  | > 40 | 
12 | CC(C)c1ccc(CN(Cc2ccc(C(=O)NC3CC3)cc2)C2CC2)cc1 [Compound 55, N-Cyclopropyl-4-((cyclopropyl(4-isopropylbenzyl)amino)methyl)benzamide] | 6.96 |  | > 40 | 
13 | Cc1ccccc1CN(Cc1ccc(C(=O)NC2CC2)cc1)C1CC1 [Compound 48] | 6.70 |  | > 40 | 
14 | O=C(NC1CC1)c1ccc(CN(C2CC2)S(=O)(=O)c2ccccc2)cc1 [Compound 101] | 5.64 |  | > 40 | 
15 | CC(C)(C)c1ccc(CN(Cc2ccc(C(=O)NC3CC3)cc2)C2CC2)cc1 [Compound 56] | 7.22 |  | > 40 | 
16 | Cc1ccc(CN(Cc2ccc(C(=O)NC3CC3)cc2)C2CC2)c(C)c1 [Compound 80, N-Cyclopropyl-4-((cyclopropyl(2,4-dimethylbenzyl)amino)methyl)benzamide] | 6.72 |  | > 40 | 
17 | O=C(NC1CC1)c1ccc(CN(Cc2ccc(F)cc2F)C2CC2)cc1 [Compound 72, N-Cyclopropyl-4-((cyclopropyl(2,4-difluorobenzyl)amino)methyl)benzamide] | 6.64 |  | > 40 | 
18 | CCCNC(=O)c1ccc(CN(Cc2ccc(Cl)cc2Cl)C2CC2)cc1 [Compound 32, 4-((Cyclopropyl(2,4-dichlorobenzyl)amino)methyl)-N-propylbenzamide] | 6.19 |  | > 40 | 
19 | O=C(NC1CC1)c1ccc(CN(Cc2ccc(F)cc2)C2CC2)cc1 [Compound 44] | 6.66 |  | > 40 | 
20 | CCCN(Cc1ccc(C(=O)NC2CC2)cc1)C1CC1 [Compound 90, N-Cyclopropyl-4-((cyclopropyl(propyl)amino)methyl)benzamide] | 5.60 |  | > 40 | 
21 | O=C(NC1CC1)c1ccc(CN(Cc2ccccc2F)C2CC2)cc1 [Compound 42] | 6.60 |  | > 40 | 
